The values that follow come from ChEMBL document CHEMBL3880419, “Modulators of sperm hypermobility and uses thereof” (2013).

For series [1], the target named is T1, Cation channel sperm-associated protein 1 (Mus musculus) (UniProt Q91ZR5).
T1 sequence (whole entry): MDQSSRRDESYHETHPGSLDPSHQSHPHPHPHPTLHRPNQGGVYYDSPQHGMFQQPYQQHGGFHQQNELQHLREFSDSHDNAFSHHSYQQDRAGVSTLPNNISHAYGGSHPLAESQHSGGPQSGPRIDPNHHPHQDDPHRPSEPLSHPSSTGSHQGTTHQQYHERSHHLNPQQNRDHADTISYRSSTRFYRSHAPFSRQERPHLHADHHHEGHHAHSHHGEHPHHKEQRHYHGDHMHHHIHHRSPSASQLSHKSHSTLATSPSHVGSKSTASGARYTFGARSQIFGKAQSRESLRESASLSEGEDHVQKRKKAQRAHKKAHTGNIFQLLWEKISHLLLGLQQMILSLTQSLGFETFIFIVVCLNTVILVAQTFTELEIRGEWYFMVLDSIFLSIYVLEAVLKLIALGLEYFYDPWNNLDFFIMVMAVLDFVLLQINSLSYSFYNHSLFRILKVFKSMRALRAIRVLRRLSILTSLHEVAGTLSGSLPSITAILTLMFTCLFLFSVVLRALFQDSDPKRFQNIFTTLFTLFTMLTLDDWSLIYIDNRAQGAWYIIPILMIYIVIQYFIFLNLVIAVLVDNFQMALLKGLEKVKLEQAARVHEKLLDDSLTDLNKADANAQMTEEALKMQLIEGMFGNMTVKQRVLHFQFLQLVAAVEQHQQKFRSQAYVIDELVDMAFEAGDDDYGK
As to the kind of experiment: Inhibition of wild type CatSper1 channel in mouse corpus epididymal sperm cells assessed decrease in Ca2+ current by whole cell patch clamp assay. On the technique in general: The patch-clamp technique gives a direct electrical read-out from membranes.

Series [2] is described as follows: Toxicity in C57BL/6 male mouse assessed as effect on animal behavior administered in diet measured after prolonged compound treatment. As to conditions: in vivo, po.
The nature of series [3]: Toxicity in C57BL/6 male mouse assessed as effect on reproductive hormone levels administered in diet measured after prolonged compound treatment. To be noted: in vivo, po.
For series [4], the target named is T2, Cation channel sperm-associated protein 1 (Homo sapiens) (UniProt Q8NEC5).
T2 sequence (whole entry): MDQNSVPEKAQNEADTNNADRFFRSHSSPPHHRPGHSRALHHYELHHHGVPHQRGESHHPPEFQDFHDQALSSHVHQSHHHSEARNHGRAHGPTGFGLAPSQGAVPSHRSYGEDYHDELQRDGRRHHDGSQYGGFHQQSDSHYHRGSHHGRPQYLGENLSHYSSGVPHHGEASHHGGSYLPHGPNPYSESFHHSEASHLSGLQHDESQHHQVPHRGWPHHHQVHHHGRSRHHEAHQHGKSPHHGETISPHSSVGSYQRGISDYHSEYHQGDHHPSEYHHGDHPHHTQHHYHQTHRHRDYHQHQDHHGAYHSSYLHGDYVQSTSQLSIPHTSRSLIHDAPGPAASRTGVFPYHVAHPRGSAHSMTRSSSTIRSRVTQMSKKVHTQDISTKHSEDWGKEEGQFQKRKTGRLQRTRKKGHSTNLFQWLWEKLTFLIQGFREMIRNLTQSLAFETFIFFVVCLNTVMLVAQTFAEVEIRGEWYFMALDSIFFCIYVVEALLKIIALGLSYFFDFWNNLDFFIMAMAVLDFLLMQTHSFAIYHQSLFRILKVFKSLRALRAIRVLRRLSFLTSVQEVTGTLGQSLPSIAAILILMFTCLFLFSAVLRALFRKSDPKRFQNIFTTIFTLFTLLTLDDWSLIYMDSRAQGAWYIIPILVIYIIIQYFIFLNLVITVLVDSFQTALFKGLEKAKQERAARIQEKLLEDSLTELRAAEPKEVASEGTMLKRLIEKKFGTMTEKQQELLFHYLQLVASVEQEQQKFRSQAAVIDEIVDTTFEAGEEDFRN
As to the kind of experiment: Inhibition of CatSper1 channel in human sperm assessed as sperm motility at 1 uM after 5 mins by computer-assisted sperm analysis (reference value: 68%). Set-up: scale not given: the % may be the effect or the level left.

Series [5] concerns Mus musculus. As to the kind of experiment: In vivo inhibition of fertility in C57BL/6 male mouse administered in diet after 7 to 9 days. Format: functional, organism-based.
The target of series [6] is T1, Cation channel sperm-associated protein 1 (Mus musculus). As to the kind of experiment: Inhibition of CatSper1 channel […] in 129/SvJ x C57BL/6J mouse cauda epididymal sperm assessed as reduction in sperm hyperactivity after 5 mins by single sperm motility assay.
Series [7] has as its target T2, Cation channel sperm-associated protein 1 (Homo sapiens). As to the kind of experiment: Inhibition of CatSper1 channel in human sperm assessed as sperm hyperactivity at 1 uM after 5 mins by computer-assisted sperm analysis (reference value: 10.5%). Set-up: scale not given: the % may be the effect or the level left.
In series [8] the test system is Mus musculus. As to the kind of experiment: Reversible inhibition of fertility in C57BL/6 male mouse administered in diet for 2 months. Type of series: functional. To be noted: TDE = time-dependent effect.
Series [9] can be described thus: Toxicity in C57BL/6 male mouse assessed as effect on serum biochemistry administered in diet measured after prolonged compound treatment. To be noted: in vivo, po.
Series [10] is described as follows: Toxicity in C57BL/6 female mouse assessed as effect on serum biochemistry administered in diet measured after prolonged compound treatment. As to conditions: in vivo, po.
Series [11] concerns the target T1, Cation channel sperm-associated protein 1 (Mus musculus). As to the kind of experiment: Inhibition of CatSper1 currents in mouse spermatozoa isolated from corpus epididymis at 20 uM by whole cell patch clamp assay.
Series [12] can be described thus: Toxicity in C57BL/6 female mouse assessed as effect on animal behavior administered in diet measured after prolonged compound treatment. To be noted: in vivo, po.
The subject of series [13] is Mus musculus. As to the kind of experiment: In vivo inhibition of fertility in C57BL/6 female mouse administered in diet treated for 5 weeks followed by breeding of female mouse with nontreated age-matched male mouse for 4 days. Type of series: functional, organism-based.
In series [14] the target is T2, Cation channel sperm-associated protein 1 (Homo sapiens). As to the kind of experiment: Inhibition of CatSper1 channel in human sperm assessed as sperm motility at 50 uM after 5 mins by computer-assisted sperm analysis (reference value: 68%). Further details: scale not given: the % may be the effect or the level left.
Series [15] shares this target. As to the kind of experiment: Inhibition of CatSper1 channel in human sperm assessed as sperm hyperactivity at 50 uM after 5 mins by computer-assisted sperm analysis (reference value: 10.5%). Set-up: scale not given: the % may be the effect or the level left.
Series [16] concerns Mus musculus. As to the kind of experiment: Reversible inhibition of fertility in C57BL/6 female mouse administered in diet for 2 months. Type of series: functional. As to conditions: TDE = time-dependent effect.
Series [17] can be described thus: Toxicity in C57BL/6 female mouse assessed as effect on reproductive hormone levels administered in diet measured after prolonged compound treatment. To be noted: in vivo, po.
For series [18], the target named is T2, Cation channel sperm-associated protein 1 (Homo sapiens). As to the kind of experiment: Inhibition of CatSper1 channel in human sperm assessed as decrease in sperm hyperactivity after 5 mins by computer-assisted sperm analysis.

Activity calls are given as the source filed them. The rule behind the calls is not given here.

On to `O=C(c1cccs1)c1no[n+]([O-])c1C(=O)c1cccs1`, for which the inhibition result in series [1], in [11] and in series [13] was “Active” throughout. Further, the Activity entry in [2] is “Non-Toxic”; in series [3], “Non-Toxic”; in series [4] it was 59%; in series [7] it was 6.2%; in series [9], “Non-Toxic”; in series [10] it was “Non-Toxic”. For the same compound, the Activity result was “Non-Toxic” in [12], 70% in series [14], 1.6% in series [15] and “Non-Toxic” in [17]. Moreover, the inhibition result is “Dose-dependent effect” in series [5], “Dose-dependent effect” in series [6], “Tde” in series [8] and “Tde” in [16].

Turning to `Cc1conc1C(=O)c1no[n+]([O-])c1C(=O)c1nocc1C`, the inhibition result in series [1], in [18] and in [13] was “Active” each time. Moreover, the Activity result in series [2], in series [3], in series [9], in series [10], in [12] and in [17] was “Non-Toxic” throughout. In addition, the inhibition entry is “Dose-dependent effect” in series [5], “Dose-dependent effect” in [6], “Tde” in series [8] and “Tde” in series [16].

`CC(C)(C)C(=O)c1no[n+]([O-])c1C(=O)C(C)(C)C`: the inhibition result in series [1], in [18] and in series [13] was “Active” each time. Besides, the Activity result in [2], in series [3], in [9], in series [10], in [12] and in series [17] was “Non-Toxic” throughout. Further, the inhibition entry was “Dose-dependent effect” in series [5], “Dose-dependent effect” in series [6], “Tde” in [8] and “Tde” in series [16].

For `O=C(c1ccc(Cl)c(Cl)c1)c1no[n+]([O-])c1C(=O)c1ccc(Cl)c(Cl)c1`, the inhibition entry in series [1], in [18] and in series [13] was “Active” each time. Moreover, the Activity result in series [2], in [3], in [9], in series [10], in series [12] and in series [17] was “Non-Toxic” throughout. In addition, the inhibition entry in [5] was “Dose-dependent effect”; in series [6] it was “Dose-dependent effect”; in series [8] it was “Tde”; in series [16], “Tde”.

For `O=C(c1ccccc1)c1no[n+]([O-])c1C(=O)c1ccccc1`, the inhibition entry in series [1] and in series [13] was “Active” in each case. The Activity entry in series [2], in series [3], in series [9], in series [10], in series [12] and in [17] was “Non-Toxic” throughout. For the same compound, the inhibition entry is “Dose-dependent effect” in series [5], “Dose-dependent effect” in series [6], “Tde” in series [8] and “Tde” in [16].
